For series [1] the following is noted: cited from earlier work.
The next series deals with CYP1B1. Further details: method as in PMID 18256205. To be noted: cited from earlier work.
Another series has as its target T1, CYP1A1 (Homo sapiens, UniProt P04798).
T1 construct: purchased BD Bioscience (Woburn, MA); host or cells: baculovirus-infected insect cells (microsomes, supersomes)
T1 sequence (P04798 1-512): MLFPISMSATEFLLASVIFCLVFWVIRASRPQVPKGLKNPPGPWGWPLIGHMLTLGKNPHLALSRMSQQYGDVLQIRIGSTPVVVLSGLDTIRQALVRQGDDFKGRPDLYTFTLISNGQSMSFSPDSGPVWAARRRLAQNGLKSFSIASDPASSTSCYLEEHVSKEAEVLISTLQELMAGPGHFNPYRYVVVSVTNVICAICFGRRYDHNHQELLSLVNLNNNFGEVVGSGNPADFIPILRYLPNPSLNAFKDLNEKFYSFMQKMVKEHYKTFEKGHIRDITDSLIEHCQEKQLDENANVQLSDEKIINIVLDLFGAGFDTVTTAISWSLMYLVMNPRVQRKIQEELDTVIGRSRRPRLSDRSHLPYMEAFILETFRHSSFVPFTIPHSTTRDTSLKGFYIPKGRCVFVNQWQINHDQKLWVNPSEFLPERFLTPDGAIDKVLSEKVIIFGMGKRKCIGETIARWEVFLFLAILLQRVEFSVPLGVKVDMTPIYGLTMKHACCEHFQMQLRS
The series is described as follows: Fluorometric HTS enzyme assay, recombinant CYP1A1 (CEC substrate). The settings on record: ±SEM, 3 replicate assays; 5 μM CEC. The series is classed as biochemical. The procedure: (§1) IC50 determinations for human CYPs were similar to HTS methods described by Crespi et al.. Unless otherwise stated, the incubations were carried out in a total volume of 200 μL of 50 mM potassium phosphate buffer (pH 7.4) with 1% acetonitrile. The reaction mixtures contained NADPH-regenerating system in potassium phosphate buffer (pH 7.4) and varying amounts of inhibitor (dissolved in 100% acetonitrile) were preincubated at 37°C for 10 minutes (except CYP2A6 which was in 100 mM Tris buffer pH 7.4). The reactions were initiated by the addition of enzyme/substrate mixture (see Table 1), followed by incubation at 37°C for 30 minutes. The fluorescent signal was measured using a SpectraMax GEMINI XPS (Molecular Devices) with excitation and emission wavelengths listed in Table 1. The data were fit to sigmoidal dose-response curves with nonlinear regression and IC50 values calculated using GraphPad Prism 5.

In the next series the target is T2, CYP2A6 (Homo sapiens, UniProt P11509).
T2 construct: purchased BD Bioscience (Woburn, MA); host or cells: baculovirus-infected insect cells (microsomes, supersomes)
T2 sequence (P11509 1-494): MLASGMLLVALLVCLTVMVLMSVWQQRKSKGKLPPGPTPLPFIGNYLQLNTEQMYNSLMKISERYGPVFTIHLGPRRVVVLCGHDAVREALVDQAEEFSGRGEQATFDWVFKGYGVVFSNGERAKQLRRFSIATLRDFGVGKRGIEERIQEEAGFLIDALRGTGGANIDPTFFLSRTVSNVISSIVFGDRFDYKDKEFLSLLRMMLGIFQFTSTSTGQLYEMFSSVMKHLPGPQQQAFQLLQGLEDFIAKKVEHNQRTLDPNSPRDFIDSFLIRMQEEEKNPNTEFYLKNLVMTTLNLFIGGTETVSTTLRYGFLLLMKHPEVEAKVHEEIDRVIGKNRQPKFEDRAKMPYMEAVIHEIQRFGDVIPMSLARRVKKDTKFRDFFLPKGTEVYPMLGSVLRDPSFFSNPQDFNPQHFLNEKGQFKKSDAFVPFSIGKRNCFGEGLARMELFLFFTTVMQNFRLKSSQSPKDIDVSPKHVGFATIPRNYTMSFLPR
The series is described as follows: Fluorometric HTS enzyme assay, recombinant CYP2A6 (coumarin substrate). It is filed as biochemical. The settings on record: ±SEM, 3 replicate assays; 3 μM coumarin. The procedure: as §1

A further series addresses T3, CYP3A4 (Homo sapiens, UniProt P08684).
T3 construct: purchased BD Bioscience (Woburn, MA); host or cells: baculovirus-infected insect cells (microsomes, supersomes)
The series can be described thus: Fluorometric HTS enzyme assay, recombinant CYP3A4 (BFC substrate). It is filed as biochemical. The settings on record: recombinant CYP3A4, pH 7.4, probe BFC, at 1 mM. The procedure: as §1

Each structure is given as a SMILES string. Where two headings read alike, the source gives them in different places. Bounds are passed on as bounds.

T3 sequence (P08684 whole entry): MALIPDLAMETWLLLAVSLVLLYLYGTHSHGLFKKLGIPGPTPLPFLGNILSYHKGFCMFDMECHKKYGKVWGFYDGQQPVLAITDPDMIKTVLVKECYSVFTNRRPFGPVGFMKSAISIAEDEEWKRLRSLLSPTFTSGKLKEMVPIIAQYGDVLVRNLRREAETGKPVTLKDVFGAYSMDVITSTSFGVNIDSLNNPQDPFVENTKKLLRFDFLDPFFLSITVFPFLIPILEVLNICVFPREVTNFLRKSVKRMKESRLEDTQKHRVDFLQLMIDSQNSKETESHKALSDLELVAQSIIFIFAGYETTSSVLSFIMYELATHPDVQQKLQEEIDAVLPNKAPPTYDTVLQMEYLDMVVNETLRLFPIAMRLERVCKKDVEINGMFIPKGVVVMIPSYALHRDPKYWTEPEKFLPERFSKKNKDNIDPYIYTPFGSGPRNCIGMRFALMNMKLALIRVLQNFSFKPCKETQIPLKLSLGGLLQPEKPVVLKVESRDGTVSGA

One may read the IC50 as the midpoint of a concentration-inhibition curve. As usually defined, the inhibition is the change of the read-out against control, counted positive when it falls. As to `N#Cc1ccc(C(c2ccc(C#N)cc2)n2cncn2)cc1` [Letrozole], the “effect of pretreatment on [11C]-vorozole binding in the liver” value in series [1] (baboon and human liver, pretreatment with letrozole) is “does not block”. The 50% inhibitory concentration (IC50) in the series on CYP1B1 (2-hydroxy estradiol formation, read-out: IC50 on CYP1B1, estradiol 2-hydroxylation) was not below 100 µM; with CYP1B1 (4-hydroxy estradiol formation, read-out: IC50 on CYP1B1, estradiol 4-hydroxylation) it was not below 100 µM; at CYP1A1 it was 69.8 ± 5.3 µM; at CYP2A6, 106 ± 34 µM. The inhibition at 30 min, 1 mM on CYP3A4 was less than 10%.

In the case of `CC(=O)N1CCN(c2ccc(OCC3COC(Cn4ccnc4)(c4ccc(Cl)cc4Cl)O3)cc2)CC1` (stereo not shown) [ketoconazole], in series [1] (pretreatment with ketoconazole), the “effect of pretreatment on liver pharmacokinetics of [11C]-vorozole binding” value is reported as “altered”.

The values are drawn from publication PMC4655258 (Enzyme Research, 2015).
